# Literature values in patent US20100015233A1, “anti-parasitic compositions” (priority 2006, published 2010).
# What was measured:
# [1] = in vivo
half-life [1] [days],solubility in water [mg/L],SMILES
3 to 6,,CCCCN(CCCC)CC(O)c1cc(Cl)cc2c1-c1ccc(Cl)cc1/C2=C/c1ccc(Cl)cc1 (centres unmarked) [Lumefantrine]
,84,C[C@@H]1CC[C@H]2[C@@H](C)C(=O)O[C@@H]3O[C@@]4(C)CC[C@@H]1[C@]32OO4 [artemisinin]
